Assay results from patent US20050075388A1 (published 2005).

SMILES	melting point
COC1Oc2c(c(=O)oc3cc(O)ccc23)C1c1c(O)c2ccc(O)cc2oc1=O (stereo not shown)	> 300 °C
O=c1oc2cc(O)ccc2c(O)c1-c1coc2c1c(=O)oc1cc(O)ccc12	> 300 °C
O=c1oc2cc(O)cc(O)c2c(O)c1C1=CCOc2oc3ccccc3c(=O)c21	254 to 256 °C
O=c1oc2cc(O)c(O)cc2c(O)c1C1=CCOc2oc3ccccc3c(=O)c21	258 to 260 °C
O=c1oc2ccccc2c(O)c1C(CCCC(c1c(O)c2ccccc2oc1=O)c1c(O)c2ccccc2oc1=O)c1c(O)c2ccccc2oc1=O	291 to 294 °C
O=c1oc2cc(O)ccc2c(O)c1C(CCCC(c1c(O)c2ccc(O)cc2oc1=O)c1c(O)c2ccc(O)cc2oc1=O)c1c(O)c2ccc(O)cc2oc1=O	299 to 302 °C
O=c1oc2ccccc2c(O)c1C1c2ccccc2Oc2c1c(=O)oc1ccccc21 (stereo not shown)	> 255 °C (dec.)
O=c1oc2cc(O)cc(O)c2c(O)c1C(CCCC(c1c(O)c2c(O)cc(O)cc2oc1=O)c1c(O)c2c(O)cc(O)cc2oc1=O)c1c(O)c2c(O)cc(O)cc2oc1=O	> 300 °C
O=c1oc2cc(O)c(O)cc2c(O)c1C(CCCC(c1c(O)c2cc(O)c(O)cc2oc1=O)c1c(O)c2cc(O)c(O)cc2oc1=O)c1c(O)c2cc(O)c(O)cc2oc1=O	> 300 °C
CCOC1Oc2c(c(=O)oc3ccccc23)C1c1c(O)c2ccccc2oc1=O (stereo not shown)	166 to 169 °C

The next lines start with the values.

melting point	SMILES
> 300 °C	O=c1oc2c(O)c(O)ccc2c(O)c1C(CCCC(c1c(O)c2ccc(O)c(O)c2oc1=O)c1c(O)c2ccc(O)c(O)c2oc1=O)c1c(O)c2ccc(O)c(O)c2oc1=O
> 300 °C	O=Cc1ccccc1C(c1c(O)c2ccc(O)cc2oc1=O)c1c(O)c2ccc(O)cc2oc1=O
> 300 °C	O=c1oc2cc(O)cc(O)c2c(O)c1C1c2ccccc2Oc2c1c(=O)oc1cc(O)cc(O)c21 (stereo not shown)
> 300 °C	O=CC(c1c(O)c2ccc(O)cc2oc1=O)c1c(O)c2ccc(O)cc2oc1=O
> 300 °C	O=Cc1ccccc1C(c1c(O)c2ccc(O)c(O)c2oc1=O)c1c(O)c2ccc(O)c(O)c2oc1=O
286 to 288 °C	O=c1oc2ccccc2c(O)c1C(CC(c1c(O)c2ccccc2oc1=O)c1c(O)c2ccccc2oc1=O)c1c(O)c2ccccc2oc1=O
